Experiments:
LOX xenografts = test: Tumor Growth Inhibition (LOX) in nude mice with subcutaneous LOX xenografts; assay type: in vivo; conditions: female nude mice, subcutaneous LOX xenograft, 30 mg/kg PO on days 1, 2, 3 and 4
Method: Female nude mice were implanted subcutaneously on the right flank with approximately 3.5×10^6 LOX cells in 100 μL PBS. Five to seven days later, tumors were measured and mice were randomized into groups of six with average tumor volume in each group of approximately 200 mm^3. Examples 30 and 42 were dissolved in 80% PEG400/20% ethanol before dosing, and administered PO at a volume of 5 mL/kg. Dosing was vehicle alone on days 1, 2, 3 and 4; and Examples 30 and 42 at 30 mg/kg on days 1, 2, 3 and 4 Animal weights and tumor volumes were measured using electronic calipers on […]. Tumor volume was calculated using the formula: volume=(width^2×length)/2. Each Example was run in a separate study with its own vehicle comparison.

V600E full-length B-Raf = molecular target: T1, V600E full-length B-Raf (Homo sapiens, UniProt P15056, V600E); test: B-Raf IC50 assay: incorporation of radio labeled phosphate from [γ-33P]ATP into FSBA-modified wild-type MEK; assay type: biochemical
T1 construct: made in house; host or cells: Sf9 insect cells (baculovirus)
T1 sequence (P15056 whole entry V600E): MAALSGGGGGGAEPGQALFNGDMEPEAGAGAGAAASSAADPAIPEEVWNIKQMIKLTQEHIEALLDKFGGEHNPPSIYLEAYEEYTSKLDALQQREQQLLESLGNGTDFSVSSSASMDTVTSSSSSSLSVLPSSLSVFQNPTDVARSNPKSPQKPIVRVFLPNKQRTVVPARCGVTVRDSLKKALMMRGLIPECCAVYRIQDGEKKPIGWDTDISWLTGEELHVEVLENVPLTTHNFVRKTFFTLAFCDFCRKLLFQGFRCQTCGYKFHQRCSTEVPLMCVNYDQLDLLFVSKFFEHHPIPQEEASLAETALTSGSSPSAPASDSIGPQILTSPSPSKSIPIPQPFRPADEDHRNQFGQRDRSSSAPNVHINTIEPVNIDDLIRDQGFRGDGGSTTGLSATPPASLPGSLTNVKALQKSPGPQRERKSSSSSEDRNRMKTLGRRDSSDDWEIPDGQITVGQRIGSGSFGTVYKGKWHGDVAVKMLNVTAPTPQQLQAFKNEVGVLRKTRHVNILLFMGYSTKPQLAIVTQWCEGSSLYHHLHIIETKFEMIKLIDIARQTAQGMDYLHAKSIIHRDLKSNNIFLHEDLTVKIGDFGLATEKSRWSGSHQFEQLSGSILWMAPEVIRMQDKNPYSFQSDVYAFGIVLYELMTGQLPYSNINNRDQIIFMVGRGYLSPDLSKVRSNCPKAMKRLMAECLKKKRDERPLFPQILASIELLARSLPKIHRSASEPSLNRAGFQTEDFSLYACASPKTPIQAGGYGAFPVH
Description: Determining the activity of Raf in the sample is possible by a number of direct and indirect detection methods (US 2004/0082014). Activity of human recombinant B-Raf protein may be assessed in vitro by assay of the incorporation of radio labeled phosphate to recombinant MAP kinase (MEK), a known physiologic substrate of B-Raf, according to US 2004/0127496 and WO 03/022840. The activity/inhibition of V600E full-length B-Raf was estimated by measuring the incorporation of radio labeled phosphate from [γ-^33]ATP into FSBA-modified wild-type MEK (see Biological Example 1).
Activity of human recombinant B-Raf protein may be assessed in vitro by assay of the incorporation of radio labeled phosphate to recombinant MAP kinase (MEK), a known physiologic substrate of B-Raf, according to US 2004/0127496 and WO 03/022840. Catalytically active human recombinant B-Raf protein is obtained by purification from sf9 insect cells infected with a human B-Raf recombinant baculovirus expression vector.
The activity/inhibition of V600E full-length B-Raf was estimated by measuring the incorporation of radio labeled phosphate from [γ-^33]ATP into FSBA-modified wild-type MEK. The 30-μL, assay mixtures contained 25 mM Na Pipes, pH 7.2, 100 mM KCl, 10 mM MgCl2, 5 mM β-glycerophosphate, 100 μM Na Vanadate, 4 μM ATP, 500 nCi [γ-^33P]ATP, 1 μM FSBA-MEK and 20 nM V600E full-length B-Raf. Incubations were carried out at 22° C. in a Costar 3365 plate (Corning). Prior to the assay, the B-Raf and FSBA-MEK were preincubated together in assay buffer at 1.5× (20 μL of 30 nM and 1.5 μM, respectively) for 15 minutes, and the assay was initiated by the addition of 10 μL of […]. Following the 60-minute incubation, the assay mixtures were quenched by the addition of 100 μL of 25% TCA, the plate was mixed on a rotary shaker for 1 minute, and the product was captured on a Perkin-Elmer GF/B filter plate using a Tomtec Mach III Harvester. After sealing the bottom of the plate, 35 μL of Bio-Safe II (Research Products International) scintillation cocktail were added to each well and the plate was top-sealed and counted in a Topcount NXT (Packard).

[1] = 4 μM ATP, 60-minute incubation, representative data of multiple tests

IC50 (V600E full-length B-Raf; [1]) | IC50 (V600E full-length B-Raf; bound stated) | SMILES | Tumor Volume (mm^3) Day 1 (LOX xenografts) | Tumor Volume (mm^3) Day 3 (LOX xenografts) | Tumor Volume (mm^3) Day 5 (LOX xenografts)
0.74 nM | < 100 nM | COc1n[nH]c2ncc(NC(=O)c3c(Cl)ccc(OCc4ccc(Cl)cc4)c3F)cc12 [Example 30, 6-chloro-3-(4-chlorobenzyloxy)-2-fluoro-N-(3-methoxy-1H-pyrazolo[3,4-b]pyridin-5-yl)benzamide] | 221.68 mm^3 | 204.49 mm^3 | 168.94 mm^3
1.76 nM | < 100 nM | COc1n[nH]c2ncc(NC(=O)c3c(Cl)ccc(OCc4ccc(C(F)(F)F)cn4)c3F)cc12 [Example 42, 6-chloro-2-fluoro-N-(3-methoxy-1H-pyrazolo[3,4-b]pyridin-5-yl)-3-((5-(trifluoromethyl)pyridin-2-yl)methoxy)benzamide] | 191.22 mm^3 | 214.61 mm^3 | 161.55 mm^3
1.45 nM | < 100 nM | COc1n[nH]c2ncc(NC(=O)c3c(Cl)ccc(OCc4ccc(F)cc4F)c3F)cc12 [Example 62, 6-chloro-3-(2,4-difluorobenzyloxy)-2-fluoro-N-(3-methoxy-1H-pyrazolo[3,4-b]pyridin-5-yl)benzamide] | – | – | –
1.71 nM | < 100 nM | COc1n[nH]c2ncc(NC(=O)c3c(Cl)ccc(OCc4ccc5c(c4)OCO5)c3F)cc12 [Example 63, 3-(benzo[d][1,3]dioxol-5-ylmethoxy)-6-chloro-2-fluoro-N-(3-methoxy-1H-pyrazolo[3,4-b]pyridin-5-yl)benzamide] | – | – | –
9.29 nM | < 100 nM | COc1n[nH]c2ncc(NC(=O)c3c(Cl)ccc(OCc4cccc(CN5CCOCC5)c4)c3F)cc12 [Example 64, 6-chloro-2-fluoro-N-(3-methoxy-1H-pyrazolo[3,4-b]pyridin-5-yl)-3-(3-(morpholinomethyl)benzyloxy)benzamide] | – | – | –
0.63 nM | < 100 nM | COc1n[nH]c2ncc(NC(=O)c3c(Cl)ccc(OCc4ccc5c(c4)CCO5)c3F)cc12 [Example 65] | – | – | –
1.5 nM | < 100 nM | COc1n[nH]c2ncc(NC(=O)c3c(Cl)ccc(OCc4ccc(Cl)cc4F)c3F)cc12 [Example 66, 6-chloro-3-(4-chloro-2-fluorobenzyloxy)-2-fluoro-N-(3-methoxy-1H-pyrazolo[3,4-b]pyridin-5-yl)benzamide] | – | – | –
61 nM | < 100 nM | COc1n[nH]c2ncc(NC(=O)c3c(Cl)ccc(OC(C)c4ccccc4)c3F)cc12 (stereo not shown) [Example 67, 6-chloro-2-fluoro-N-(3-methoxy-1H-pyrazolo[3,4-b]pyridin-5-yl)-3-(1-phenylethoxy)benzamide] | – | – | –
658 nM | – | COc1n[nH]c2ncc(NC(=O)c3c(Cl)ccc(OCc4cncnc4)c3F)cc12 [Example 68, 6-chloro-2-fluoro-N-(3-methoxy-1H-pyrazolo[3,4-b]pyridin-5-yl)-3-(pyrimidin-5-ylmethoxy)benzamide] | – | – | –
1.66 nM | < 100 nM | COc1n[nH]c2ncc(NC(=O)c3c(Cl)ccc(OCc4ccc5ncccc5c4)c3F)cc12 [Example 69, 6-chloro-2-fluoro-N-(3-methoxy-1H-pyrazolo[3,4-b]pyridin-5-yl)-3-(quinolin-6-ylmethoxy)benzamide] | – | – | –
25.7 nM | < 100 nM | COc1n[nH]c2ncc(NC(=O)c3c(Cl)ccc(OCc4cnn(C)c4)c3F)cc12 [Example 70, 6-chloro-2-fluoro-N-(3-methoxy-1H-pyrazolo[3,4-b]pyridin-5-yl)-3-((1-methyl-1H-pyrazol-4-yl)methoxy)benzamide] | – | – | –
0.66 nM | < 100 nM | COc1n[nH]c2ncc(NC(=O)c3c(C)ccc(OCc4ccc(F)cc4)c3F)cc12 [Example 71, 2-fluoro-3-(4-fluorobenzyloxy)-N-(3-methoxy-1H-pyrazolo[3,4-b]pyridin-5-yl)-6-methylbenzamide] | – | – | –
0.4 nM | < 100 nM | COc1n[nH]c2ncc(NC(=O)c3c(C)ccc(OCc4ccc(Cl)cc4)c3F)cc12 [Example 72, 3-(4-chlorobenzyloxy)-2-fluoro-N-(3-methoxy-1H-pyrazolo[3,4-b]pyridin-5-yl)-6-methylbenzamide] | – | – | –
0.86 nM | < 100 nM | COc1n[nH]c2ncc(NC(=O)c3c(C)ccc(OCc4ccc(C(F)(F)F)cc4)c3F)cc12 [Example 73, 2-fluoro-N-(3-methoxy-1H-pyrazolo[3,4-b]pyridin-5-yl)-6-methyl-3-(4-(trifluoromethyl)benzyloxy)benzamide] | – | – | –
0.51 nM | < 100 nM | COc1n[nH]c2ncc(NC(=O)c3c(C)ccc(OCc4ccc(Cl)cn4)c3F)cc12 [Example 74, 3-((5-chloropyridin-2-yl)methoxy)-2-fluoro-N-(3-methoxy-1H-pyrazolo[3,4-b]pyridin-5-yl)-6-methylbenzamide] | – | – | –
139 nM | < 500 nM | COc1n[nH]c2ncc(NC(=O)c3c(Cl)ccc(OCc4ccc(CN5CCOCC5)cc4)c3F)cc12 [Example 75, 6-chloro-2-fluoro-N-(3-methoxy-1H-pyrazolo[3,4-b]pyridin-5-yl)-3-(4-(morpholinomethyl)benzyloxy)benzamide] | – | – | –
13 nM | < 100 nM | COc1n[nH]c2ncc(NC(=O)c3c(Cl)ccc(OCc4cccc5[nH]ccc45)c3F)cc12 [Example 76, 3-((1H-indol-4-yl)methoxy)-6-chloro-2-fluoro-N-(3-methoxy-1H-pyrazolo[3,4-b]pyridin-5-yl)benzamide] | – | – | –
0.56 nM | < 100 nM | COc1n[nH]c2ncc(NC(=O)c3c(Cl)ccc(OCc4ccc(C5CC5)cc4)c3F)cc12 [Example 77, 6-chloro-3-(4-cyclo-propylbenzyloxy)-2-fluoro-N-(3-methoxy-1H-pyrazolo[3,4-b]pyridin-5-yl)benzamide] | – | – | –
5.19 nM | < 100 nM | CC(=O)Nc1n[nH]c2ncc(NC(=O)c3c(Cl)ccc(OCc4ccccc4)c3F)cc12 [Example 78, N-(3-acetamido-1H-pyrazolo[3,4-b]pyridin-5-yl)-3-(benzyloxy)-6-chloro-2-fluorobenzamide] | – | – | –
